{
  "source": "patent US9301961B2",
  "about": "“Autoimmune and inflammatory disorder therapy” (Katholieke Universiteit Leuven, K.U. Leuven R&D, priority 2011, dated 2016)",
  "key": {"TESK1": {"molecular_target": "T1, TESK1 (Homo sapiens, UniProt Q15569)", "T1 construct": "made in house; host or cells: E. coli BL21-derived host (T7 phage) or HEK-293", "T1 sequence (Q15569 whole entry)": "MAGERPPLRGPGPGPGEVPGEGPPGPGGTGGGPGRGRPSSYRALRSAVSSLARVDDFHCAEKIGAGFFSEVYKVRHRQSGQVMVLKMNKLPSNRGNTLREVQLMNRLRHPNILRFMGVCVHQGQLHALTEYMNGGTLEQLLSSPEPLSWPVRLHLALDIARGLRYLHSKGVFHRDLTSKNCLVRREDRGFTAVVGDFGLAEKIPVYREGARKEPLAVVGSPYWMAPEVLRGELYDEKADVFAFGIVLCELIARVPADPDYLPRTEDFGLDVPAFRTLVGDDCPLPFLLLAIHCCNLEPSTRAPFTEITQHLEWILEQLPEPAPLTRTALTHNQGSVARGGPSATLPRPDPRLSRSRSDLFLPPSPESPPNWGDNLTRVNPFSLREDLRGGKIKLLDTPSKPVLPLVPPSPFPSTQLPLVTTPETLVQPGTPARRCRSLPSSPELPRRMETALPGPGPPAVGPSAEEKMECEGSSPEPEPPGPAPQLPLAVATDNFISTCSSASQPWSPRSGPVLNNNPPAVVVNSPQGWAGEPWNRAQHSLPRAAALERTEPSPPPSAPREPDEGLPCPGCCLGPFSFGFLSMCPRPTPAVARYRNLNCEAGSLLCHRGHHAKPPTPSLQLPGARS", "assay": "Kinase-tagged phage competition binding assay (qPCR), 382-kinase library"}, "[1]": {"molecular_target": "T2, PI3KCB (PI3K p110β/p85α (h)) (Homo sapiens, UniProt P42338)", "T2 construct": "purchased Millipore", "T2 sequence (P42338 whole entry)": "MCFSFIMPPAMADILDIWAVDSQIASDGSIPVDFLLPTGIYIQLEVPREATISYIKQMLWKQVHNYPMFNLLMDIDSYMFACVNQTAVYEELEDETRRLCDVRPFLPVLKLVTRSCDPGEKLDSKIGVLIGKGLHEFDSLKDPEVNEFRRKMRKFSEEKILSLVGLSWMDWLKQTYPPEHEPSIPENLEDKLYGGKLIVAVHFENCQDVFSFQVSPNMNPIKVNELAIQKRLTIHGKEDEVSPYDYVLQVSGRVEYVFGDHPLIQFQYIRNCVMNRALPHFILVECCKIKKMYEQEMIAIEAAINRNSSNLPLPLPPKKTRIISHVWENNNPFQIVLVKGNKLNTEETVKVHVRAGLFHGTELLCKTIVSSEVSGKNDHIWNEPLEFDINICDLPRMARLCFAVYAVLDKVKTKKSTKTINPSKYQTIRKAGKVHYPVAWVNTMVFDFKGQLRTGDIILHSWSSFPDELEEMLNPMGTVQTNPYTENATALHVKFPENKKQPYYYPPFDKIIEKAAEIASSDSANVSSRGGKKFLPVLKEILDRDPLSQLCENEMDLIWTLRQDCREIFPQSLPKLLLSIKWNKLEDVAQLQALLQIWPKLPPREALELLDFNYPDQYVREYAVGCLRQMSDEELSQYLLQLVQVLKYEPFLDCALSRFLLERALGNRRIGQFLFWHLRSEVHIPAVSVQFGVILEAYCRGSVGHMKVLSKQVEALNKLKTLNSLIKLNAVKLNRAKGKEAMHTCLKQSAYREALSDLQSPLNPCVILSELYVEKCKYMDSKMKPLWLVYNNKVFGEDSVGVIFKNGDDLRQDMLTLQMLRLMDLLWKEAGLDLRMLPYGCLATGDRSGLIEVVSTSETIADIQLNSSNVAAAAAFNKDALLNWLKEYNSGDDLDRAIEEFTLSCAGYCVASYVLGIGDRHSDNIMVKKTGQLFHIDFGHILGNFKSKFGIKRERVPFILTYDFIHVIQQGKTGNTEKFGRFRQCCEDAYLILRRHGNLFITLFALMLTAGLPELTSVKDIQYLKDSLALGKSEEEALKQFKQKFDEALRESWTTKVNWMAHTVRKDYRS", "T2 sequence (P27986 whole entry partner)": "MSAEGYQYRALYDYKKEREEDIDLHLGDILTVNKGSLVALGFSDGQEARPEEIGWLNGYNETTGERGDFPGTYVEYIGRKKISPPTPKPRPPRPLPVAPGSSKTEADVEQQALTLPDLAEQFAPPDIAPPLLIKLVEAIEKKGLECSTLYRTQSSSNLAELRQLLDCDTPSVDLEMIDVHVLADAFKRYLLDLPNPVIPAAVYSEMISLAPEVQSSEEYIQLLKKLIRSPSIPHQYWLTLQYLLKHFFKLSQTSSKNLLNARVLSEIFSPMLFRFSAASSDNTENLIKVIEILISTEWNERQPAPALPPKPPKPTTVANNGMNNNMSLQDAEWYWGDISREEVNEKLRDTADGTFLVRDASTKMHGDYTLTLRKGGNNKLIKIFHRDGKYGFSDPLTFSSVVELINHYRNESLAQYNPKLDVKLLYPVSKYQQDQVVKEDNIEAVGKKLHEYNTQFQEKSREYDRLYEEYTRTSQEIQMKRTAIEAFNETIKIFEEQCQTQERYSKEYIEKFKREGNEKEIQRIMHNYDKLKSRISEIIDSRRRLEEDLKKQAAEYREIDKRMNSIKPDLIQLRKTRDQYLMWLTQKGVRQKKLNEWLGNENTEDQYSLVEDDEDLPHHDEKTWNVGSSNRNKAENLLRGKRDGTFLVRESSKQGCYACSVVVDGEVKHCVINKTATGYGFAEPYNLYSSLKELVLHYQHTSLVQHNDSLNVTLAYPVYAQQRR", "assay": "Commercial kinase activity assay (Millipore, HTRF)", "type": "biochemical", "settings": "10 μM test compound", "method": "LOK (h) was incubated with 8 mM MOPS pH 7.0, 0.2 mM EDTA, 250 μM […], 10 mM MgAcetate and [γ-^33P-ATP] (specific activity approx. 500 cpm/pmol, concentration as required). The reaction was initiated by the addition of the MgATP mix. After incubation for 40 minutes at room temperature, the reaction was stopped by the addition of 3% phosphoric acid solution. 10 μL of the reaction was then spotted onto a P30 filtermat and washed three times for 5 minutes in 75 mM phosphoric acid and once in methanol prior to drying and scintillation counting. PI3K p110β/p85α (h) PI3K (p110β/p85α) (h) was incubated in assay buffer containing 10 μM phosphatidylinositol-4,5-bisphosphate and MgATP (concentration as required). The reaction was initiated by the addition of the MgATP mix. After incubation for 30 minutes at room temperature, the reaction was stopped by the addition of stop solution containing EDTA and biotinylated phosphatidylinositol-3,4,5-trisphosphate. Finally, detection buffer was added, which contains europium-labelled anti-GST monoclonal antibody, GST-tagged GRP1 PH domain and streptavidinallophycocyanin. The plate was then read in time-resolved fluorescence mode and the homogenous time-resolved fluorescence (HTRF®) signal determined according to the formula HTRF=10000×(Em665nm/Em620 nm). […]"}, "PI4KA (PI4K alpha)": {"molecular_target": "T3, PI4KA (PI4K alpha) (Homo sapiens, UniProt P42356)", "T3 construct": "purchased Invitrogen", "T3 sequence (P42356 whole entry)": "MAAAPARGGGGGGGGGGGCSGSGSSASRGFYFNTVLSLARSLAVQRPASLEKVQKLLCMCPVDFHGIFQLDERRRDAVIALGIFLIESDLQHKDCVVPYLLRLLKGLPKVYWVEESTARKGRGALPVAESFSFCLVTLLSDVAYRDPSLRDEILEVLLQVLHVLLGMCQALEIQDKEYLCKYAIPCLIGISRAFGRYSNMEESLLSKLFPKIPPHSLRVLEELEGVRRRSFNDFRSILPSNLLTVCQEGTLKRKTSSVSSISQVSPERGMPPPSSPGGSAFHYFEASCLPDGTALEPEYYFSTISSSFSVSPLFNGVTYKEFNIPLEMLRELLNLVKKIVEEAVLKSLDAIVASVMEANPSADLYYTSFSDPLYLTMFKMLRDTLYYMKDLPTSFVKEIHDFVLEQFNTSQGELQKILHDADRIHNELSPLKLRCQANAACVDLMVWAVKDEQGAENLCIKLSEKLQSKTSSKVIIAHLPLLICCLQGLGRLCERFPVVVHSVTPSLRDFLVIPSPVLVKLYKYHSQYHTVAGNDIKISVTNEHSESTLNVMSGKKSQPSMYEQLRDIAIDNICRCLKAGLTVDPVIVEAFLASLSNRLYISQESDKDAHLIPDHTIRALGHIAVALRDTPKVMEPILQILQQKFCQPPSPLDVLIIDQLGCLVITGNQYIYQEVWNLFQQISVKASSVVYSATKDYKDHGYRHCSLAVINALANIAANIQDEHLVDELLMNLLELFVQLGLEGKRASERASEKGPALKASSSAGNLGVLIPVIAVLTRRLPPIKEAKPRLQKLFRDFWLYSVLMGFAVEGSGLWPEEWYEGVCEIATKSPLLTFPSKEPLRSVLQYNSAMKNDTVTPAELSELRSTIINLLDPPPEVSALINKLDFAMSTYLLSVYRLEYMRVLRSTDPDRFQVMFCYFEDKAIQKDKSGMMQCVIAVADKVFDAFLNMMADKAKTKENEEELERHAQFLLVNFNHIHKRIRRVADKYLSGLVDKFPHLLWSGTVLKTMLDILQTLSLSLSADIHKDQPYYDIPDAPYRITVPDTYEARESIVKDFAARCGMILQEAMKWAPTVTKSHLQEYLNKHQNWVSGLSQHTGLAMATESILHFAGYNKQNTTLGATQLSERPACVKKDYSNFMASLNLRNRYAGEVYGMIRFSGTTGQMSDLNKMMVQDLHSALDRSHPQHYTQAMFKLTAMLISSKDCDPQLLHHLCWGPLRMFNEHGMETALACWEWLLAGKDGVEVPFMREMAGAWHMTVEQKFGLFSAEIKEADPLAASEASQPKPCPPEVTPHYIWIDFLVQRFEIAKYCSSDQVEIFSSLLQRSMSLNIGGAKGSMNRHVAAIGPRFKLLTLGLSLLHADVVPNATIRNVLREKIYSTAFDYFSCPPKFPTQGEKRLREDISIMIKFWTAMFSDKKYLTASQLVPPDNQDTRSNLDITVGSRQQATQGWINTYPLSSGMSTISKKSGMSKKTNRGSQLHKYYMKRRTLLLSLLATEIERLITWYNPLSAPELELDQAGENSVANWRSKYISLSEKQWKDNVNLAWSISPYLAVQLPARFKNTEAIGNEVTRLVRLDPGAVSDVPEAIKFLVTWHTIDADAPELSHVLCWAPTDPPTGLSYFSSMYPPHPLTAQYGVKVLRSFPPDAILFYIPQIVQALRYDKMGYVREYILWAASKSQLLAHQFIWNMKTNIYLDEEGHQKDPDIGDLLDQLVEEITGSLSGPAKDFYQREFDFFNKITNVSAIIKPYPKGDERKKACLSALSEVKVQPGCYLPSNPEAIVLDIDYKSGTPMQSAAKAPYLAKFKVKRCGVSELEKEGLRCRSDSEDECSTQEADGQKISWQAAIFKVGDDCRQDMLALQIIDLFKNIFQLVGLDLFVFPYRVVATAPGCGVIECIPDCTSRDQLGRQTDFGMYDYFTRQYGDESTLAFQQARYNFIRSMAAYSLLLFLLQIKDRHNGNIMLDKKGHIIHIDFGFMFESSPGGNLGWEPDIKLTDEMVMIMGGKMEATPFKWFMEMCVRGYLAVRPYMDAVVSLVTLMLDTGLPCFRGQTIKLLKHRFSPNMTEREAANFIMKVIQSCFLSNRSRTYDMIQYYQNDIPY", "assay": "Commercial kinase activity assay (Invitrogen, ADP TR-FRET)", "type": "biochemical", "settings": "10 μM test compound"}, "[2]": {"tested_on": "Peripheral blood mononuclear cells (PBMCs) mixed with mitomycin C treated RPMI1788 cells", "assay": "Mixed lymphocyte reaction (MLR) assay, 3H-thymidine uptake", "text": "In the MLR assay PBMCs from two individuals are mixed together in tissue culture for several days. […] In the one-way MLR test, the mononuclear cells from one of the individuals are inactivated (usually by treatment with mitomycin C or irradiation), thereby allowing only the untreated remaining population of mononuclear cells, such as lymphocytes, to proliferate in response to foreign histocompatibility antigens.\nThe immunosuppressive effect of test compounds was also investigated using MLR assays. Peripheral blood mononuclear cells (PBMCs) were isolated from heparinized blood of healthy donors by density-gradient centrifugation over Lymphoprep. […] RPMI1788 cells were treated with 30 μg/mL mitomycin C for 20 min at 37° C., washed four times with medium, and finally suspended in complete RPMI medium to a density of 0.45×10^6 cells/mL. An amount of 100 μL of each cell suspension was mixed with 20 μL of diluted compound. The mixed cells were cultured at 37° C. for 6 days in 5% CO2. […] Thereafter, the cells were harvested on glass filter paper and the counts per minute (cpm) determined in a liquid scintillation counter."}},
  "note": "Like-named read-outs stand apart in the source and are kept apart here.",
  "data": [
    {"smiles": "Nc1nc(N2CCN(C(=O)COc3ccc(Cl)cc3)CC2)c2nc(-c3cccnc3)sc2n1", "note": "[formula (1), 5-amino-7-[4-(4-chlorophenoxyacetyl)piperazin-1-yl]-2-(pyridin-3-yl)thiazolo[5,4-d]pyrimidine]", "values": [
      {"measurement": "inhibition at 10 µM", "setting": "TESK1; 10 μM compound, read-out: % Inhibition of substrate binding", "result": 51, "unit": "%"},
      {"measurement": "IC50", "setting": "TESK1; stated for the 8 kinases of Table 1", "result": "< 10000", "unit": "nM"},
      {"measurement": "Kinase activity", "setting": "[1]", "result": "100 percentage of control"},
      {"measurement": "Kinase activity", "setting": "PI4KA (PI4K alpha)", "result": "99 percentage of control"},
      {"measurement": "IC50", "setting": "[2]; RPMI-1788, 144 h, read-out: IC50 MLR, 6 days culture", "result": "< 50", "unit": "nM"},
      {"measurement": "IC50", "setting": "[2]; read-out: IC50 MLR, 6 days culture", "result": 30, "unit": "nM"}
    ]}
  ]
}
